This is an account of results in patent publication US8936916B2, “Polypeptides for microbial detection” (3M Innovative Properties Company, priority 2008, dated 2015).

Ends that are not written are not given here.

The conditions of assay [1]: as the pH drops from 7; cited from earlier work.
Assay [2] in a line: Permeabilization of DPPC liposomes containing glucose oxidase (glucose oxidase/HRP colour reaction, scanned image). The settings on record: for Relative glucose oxidase activity (integrated digital values): DPPC; for Color apparent in the well: 30 minutes at room temperature. Format: biochemical. The protocol: (§1) The formation of a pore allows glucose into the liposome where it reacts with glucose oxidase to generate hydrogen peroxide. The hydrogen peroxide reacts with HRP, 4-AAP and TOOS (all outside the liposome) to generate an intense purple color.
(§2) The ability of the phosphorylated phylloxin to open liposomes in the presence of phosphatase was tested by preparing a developing solution of 0.5 mg/mL TOOS (3-(N-Ethyl-3-methylanilino)-2-hydroxypropanesulfonic acid sodium salt) (Sigma-Aldrich, St. Louis, Mo.), 1.0 mg/mL 4-AAP (4-amino-antipyrene) (Sigma-Aldrich), 12.5 mg/mL glucose and 0.0001 mg/mL HRP (horseradish peroxidase) (Pierce Biotechnology, Rockford, Ill.) in 50 mM TES.
(§3) 200 μL of this solution was placed in one well of 96-well plate containing 10 μL (0.004 mg/mL) of a DPPC liposome suspension. A second well was prepared similarly and 10 μL (0.3 mg/mL) of phylloxin solution in TES was also added. A third well was prepared similar to the second well. Alkaline phosphatase (10 μL at 2.5 mg/mL in TES) was added to the third well to a final concentration of 0.11 mg/mL. A similar set of wells was prepared with DOPC/cholesterol liposomes at the same concentration.
(§4) A weaker color was apparent in the well with DPPC liposomes, phylloxin and phosphatase, and weaker again in the well with DPPC liposomes and phylloxin. The remaining wells were essentially colorless. The image was recorded on an HP scanner and analyzed using an AlphaImager (Alpha Innotech, San Leandro, Calif.). The integrated digital values at 30 minutes are shown in Table 1 below, and at two hours in Table 2.

Assay [3] is described as follows: Permeabilization of DOPC/cholesterol liposomes containing glucose oxidase (glucose oxidase/HRP colour reaction, scanned image). Type of assay: biochemical. The settings on record: for Relative glucose oxidase activity (integrated digital values): DOPC/Cholesterol. The protocol:
as §1, §2, §3, §4

A short description of assay [4]: Permeabilization of DPPC liposomes containing glucose oxidase by phosphorylated dermatoxin (absorbance at 538 nm). Type of assay: biochemical. The settings on record: Positive Control. How it is done: DPPC liposomes containing 5 mg/mL glucose oxidase were prepared as described in Example 2. Glucose oxidase activity was measured in a coupled enzyme reaction with horseradish peroxidase as described in Example 2. The various solutions were quickly added to each of the wells of a microplate using a multichannel pipette and the reactions were started (at T=0 hours) with the addition to the wells of a solution containing glucose and 4-AAP.
The ability of the phosphorylated dermatoxin to open liposomes in the presence of phosphatase was tested by preparing a developing solution as described in Example 2. One hundred-fifty microliters of the developing solution was placed in each well of a 96-well microplate. To each column in the plate was added 20 μL of TES buffer containing one of the following concentrations of unpurified dermatoxin: 3.3 mg/mL, 3.3×10^−1 mg/mL, 3.3×10^−2 mg/mL, 3.3×10^−3 mg/mL, 3.3×10^−4 mg/mL, 3.3×10^−5 mg/mL, 3.3×10^−6 mg/mL, or 3.3×10^−7 mg/mL. Negative control wells contained TES buffer with no dermatoxin. Positive control wells buffer contained TES buffer with Triton X-100. Ten-microliter aliquots of the following concentrations of DPPC liposomes (containing 5 mg/mL glucose oxidase) were added to wells in duplicate rows: 0.1 mg lipid/mL, 0.02 mg lipid/mL, 0.004 mg lipid/mL, or plain buffer. To one of the duplicate rows was added 20 μL of 2.5 mg/mL alkaline phosphatase in TES. The other duplicate row received 20 μL of TES buffer. Thus the final dermatoxin concentration in the well varied from […], and the final lipid concentration in the well ranged from 0.005 mg lipid/mL to 2.0×10^−4 mg lipid/mL.
The absorbance was recorded at 538 nm on a SpectraMax M5 plate reader (Molecular Devices, Sunnyvale, Calif.) after two hours incubation at room temperature, and also after overnight incubation (approximately 18 hours). Since the absorbance of several wells was saturated, the overnight samples were diluted 1:10 with 50 mmol TES and the absorbance of the diluted samples was measured.

Where [5] appears, read: 2-hour incubation, liposome + peptide.
The mark [6] stands for this setting: 2-hour incubation, liposome + peptide + phosphatase.
[7] abbreviates: 30-minute incubation, liposome + peptide.
The mark [8] stands for this setting: 30-minute incubation, liposome + peptide + phosphatase.

For GALA, the “pH at which the cytolytic peptide becomes activated” value in assay [1] is “about 5.0”.

For the substance “GWMSKIASGIGTFLSGMQQ (GWMSKIASGIGTFLSGMQQ-NH2; not fully specified (residues 4, 8, 12, 15, N-terminus); also: phosphorylated) [Tetraphosphorylated Phylloxin, fully phosphorylated phylloxin made by Fmoc synthesis on Rink amide resin, HPLC purified]”, the “Relative glucose oxidase activity (integrated digital values)” value in assay [2] (setting [5]) is on record as 173670; in assay [2] (setting [6]), 217620; in assay [2] (setting [7]), 84996; in assay [2] (setting [8]), 97588; in assay [3] (setting [5]) it was 128550; in assay [3] (setting [6]), 299950. Besides, the “Relative glucose oxidase activity (integrated digital values)” value in assay [3] (setting [7]) was found to be 67680; in assay [3] (setting [8]), 184416. The “Color apparent in the well” value is “weaker again” in assay [2] (DPPC liposomes and phylloxin, no phosphatase); “weaker color” in assay [2] (DPPC liposomes, phylloxin and phosphatase); “dark purple color” in assay [3] (30 minutes at room temperature, DOPC/cholesterol liposomes, phylloxin and phosphatase). Moreover, in assay [2] (DPPC liposomes, with versus without alkaline phosphatase), the “Phosphatase-dependent opening of liposomes” value is recorded as “still an effect, but it is not so pronounced”. Also, the Opening of liposomes entry in assay [3] (DOPC/cholesterol liposomes, in the absence of alkaline phosphatase) was “little effect”; in assay [3] (DOPC/cholesterol liposomes, in the presence of alkaline phosphatase), “rapidly opens liposomes”.

Take “Triton X-100 [Positive Control, reference compound]”: the “Absorbance at 538 nm (cytolytic peptide activity)” value (from here on “Absorbance at 538 nm”) is 2.272 absorbance units in assay [4] (2 hrs, lipid conc. 0, with phosphatase); 0.123 absorbance units in assay [4] (2 hrs, lipid conc. 0, without phosphatase); 0.132 absorbance units in assay [4] (2 hrs, lipid conc. 0.004, with phosphatase); 0.210 absorbance units in assay [4] (2 hrs, lipid conc. 0.004, without phosphatase); 0.296 absorbance units in assay [4] (2 hrs, lipid conc. 0.02, with phosphatase); 0.602 absorbance units in assay [4] (2 hrs, lipid conc. 0.02, without phosphatase). The “Absorbance at 538 nm” value in assay [4] (2 hrs, lipid conc. 0.1, with phosphatase) is 0.557 absorbance units; in assay [4] (2 hrs, lipid conc. 0.1, without phosphatase), 2.220 absorbance units; in assay [4] (18 hrs (d), 1:10-diluted sample, lipid conc. 0, with phosphatase) it was 1.064 absorbance units; in assay [4] (18 hrs (d), 1:10-diluted sample, lipid conc. 0, without phosphatase) it was 0.055 absorbance units; in assay [4] (18 hrs (d), 1:10-diluted sample, lipid conc. 0.004, with phosphatase), 0.056 absorbance units; in assay [4] (18 hrs (d), 1:10-diluted sample, lipid conc. 0.004, without phosphatase) it was 0.097 absorbance units. Further, the “Absorbance at 538 nm” value in assay [4] (18 hrs (d), 1:10-diluted sample, lipid conc. 0.02, with phosphatase) is given as 0.094 absorbance units; in assay [4] (18 hrs (d), 1:10-diluted sample, lipid conc. 0.02, without phosphatase) it was 0.274 absorbance units; in assay [4] (18 hrs (d), 1:10-diluted sample, lipid conc. 0.1, with phosphatase), 0.252 absorbance units; in assay [4] (18 hrs (d), 1:10-diluted sample, lipid conc. 0.1, without phosphatase), 1.018 absorbance units; in assay [4] (18 hrs, lipid conc. 0, with phosphatase), 4.000 absorbance units; in assay [4] (18 hrs, lipid conc. 0, without phosphatase) it was 0.158 absorbance units. For the same substance, the “Absorbance at 538 nm” value was 0.158 absorbance units in assay [4] (18 hrs, lipid conc. 0.004, with phosphatase); 0.524 absorbance units in assay [4] (18 hrs, lipid conc. 0.004, without phosphatase); 0.524 absorbance units in assay [4] (18 hrs, lipid conc. 0.02, with phosphatase); 2.043 absorbance units in assay [4] (18 hrs, lipid conc. 0.02, without phosphatase); 2.043 absorbance units in assay [4] (18 hrs, lipid conc. 0.1, with phosphatase).
